The target of assay [1] is T1, Polypeptide N-acetylgalactosaminyltransferase 2 (Homo sapiens, UniProt Q10471). The assay is described as follows: Binding affinity of human recombinant FLAG-tagged ppGalNAcT2 expressed in HEK293 cells assessed as dissociation rate by SPR analysis.
Assay [2] addresses T1, Polypeptide N-acetylgalactosaminyltransferase 2. The assay is described as follows: Binding affinity of human recombinant FLAG-tagged ppGalNAcT2 expressed in HEK293 cells assessed as association rate by SPR analysis. The note with it: read-out: kon (M-1-s-1). (In general: SPR reads the build-up and loss of mass on a sensor chip optically.)

T1 sequence (Q10471 whole entry): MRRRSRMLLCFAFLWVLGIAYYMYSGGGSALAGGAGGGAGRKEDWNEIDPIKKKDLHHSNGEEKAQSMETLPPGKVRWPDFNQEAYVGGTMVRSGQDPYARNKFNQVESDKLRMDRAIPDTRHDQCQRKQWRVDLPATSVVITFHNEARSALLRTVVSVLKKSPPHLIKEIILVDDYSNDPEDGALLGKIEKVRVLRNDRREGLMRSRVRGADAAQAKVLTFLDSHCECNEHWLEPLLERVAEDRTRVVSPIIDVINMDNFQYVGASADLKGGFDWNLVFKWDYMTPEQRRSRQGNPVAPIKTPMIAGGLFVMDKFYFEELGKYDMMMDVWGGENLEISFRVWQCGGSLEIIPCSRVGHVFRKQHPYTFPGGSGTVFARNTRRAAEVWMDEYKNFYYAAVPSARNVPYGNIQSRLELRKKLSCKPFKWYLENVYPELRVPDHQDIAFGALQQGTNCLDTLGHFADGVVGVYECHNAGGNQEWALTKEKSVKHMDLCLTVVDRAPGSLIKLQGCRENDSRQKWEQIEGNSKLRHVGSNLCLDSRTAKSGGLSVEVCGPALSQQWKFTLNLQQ

Broadly, the koff is the rate constant with which the complex falls apart. The term kon denotes a measure of how fast the partners come together. As to `O=c1oc2c(O)c(O)cc3c(=O)oc4c(O)c(O)cc1c4c23` [Elagic Acid], in assay [1], the koff was found to be 0.000879 s⁻¹. In assay [2], the kon was determined as 2370 M⁻¹ s⁻¹.
Consider `O=C(O)c1cc(O)c(O)c(O)c1` [Gallic Acid, F], for which the koff in assay [1] was 0.00134 s⁻¹. The kon in assay [2] turned out to be 1450 M⁻¹ s⁻¹.
As for `O=c1oc2c(O)c(O)ccc2c2cc(O)c(O)cc12`, the koff in assay [1] was found to be 0.00104 s⁻¹. Also, in assay [2], the kon amounted to 3530 M⁻¹ s⁻¹.

Source of the values: BindingDB's records for doi:10.1016/j.bmc.2019.06.020 (Shanghai Jiao Tong University, 2019).
